{"source": "patent US6440999B1", "about": "“Intimal thickening inhibitory agent” (Chugai Seiyaku Kabushiki Kaisha, priority 1995, dated 2002)", "key": {"[1]": {"system": "rabbit balloon injury models", "experiment": "In vivo effect in intimal thickening model (1), rabbit balloon injury", "experimental": "In order to assess the inhibitory effect of the compound of the present invention on intimal thickening in vivo, the compound of Example 36 was tested using rabbit balloon injury models.\n(§1) Cholesterol-fed rabbits in groups of eight (JW: CSK male, 11-week-old) were used to prepare rabbit balloon injury models. Briefly, rabbits were fed with a high cholesterol diet (cholesterol content: 1%) for 2 weeks before balloon treatment. The animals were balloon-treated with a balloon catheter (3 French, available from Baxter) under anesthesia to peel the aortic intima 5 times. The animals were orally administered with the compound which was suspended in a 1% carboxymethyl cellulose (CMC) solution (200 mg/kg). On the other hand, control animals were orally administered with a 1% CMC solution without the compound. The administrations were performed once a day from 1 week before the balloon treatment until the day before the dissection for evaluation.\nAfter four weeks from the balloon treatment, specimens were taken from the aorta, stained with Elastica van Geison, and analyzed under an optical microscope. The image was processed to measure the thickness and area of the thickened intima. Averages of the thickness and area were obtained for each individual animal. The animals which died due to the operation and those having a serum cholesterol level of 3500 mg/dl or higher were excluded from the measurement. The number of animals used for the evaluation was 5 or 6 per group."}, "[2]": {"system": "A7r5 cells derived from the aorta of a rat", "experiment": "Inhibition of serum-stimulated proliferation of vascular smooth muscle cells, acid phosphatase activity", "format": "cell-based", "conditions": "48 hours after 2% FBS stimulation, n = 3, mean ± SD; for Acid Phosphatase Activity Absorbance (OD405): control 0.867 ± 0.089", "experimental": "In order to assess the inhibitory effect of the compounds of the present invention on serum-stimulated proliferation of vascular smooth muscle cells in vitro, the compounds of Examples 1, 4, 20, 22, 27, 31, 36, 50, 52, and 58 were tested using A7r5 cells derived from the aorta of a rat (ATCC-CRL-1444).\nUsing DMEM medium containing 10% FBS, the cells were placed on 96-well microtiter plates with 5×10^3 cells/0.2 ml/ well and then incubated. The medium was exchanged for 2% FBS-containing DMEM medium on the third day and then for 0.2% FBS-containing DMEM medium on the fourth day from the start of the incubation. After 24-hour incubation in the 0.2% FBS-containing DMEM medium, the test compound was added. Each of the test compounds were added to the wells in the form of a solution or suspension in ethanol in an amount of 1 μl/well to final compound concentrations indicated in Table 3 below and the resultant ethanol concentration of 0.5% in each well. After additional 24-hour incubation, the medium was removed, and 0.2 ml of DMEM medium and the test compound were added thereto again, and the cells were stimulated by serum (2% FBS). Forty-eight hours after the stimulation, the acid phosphatase activity in the wells was measured by means of a kit (Abacus Cell Proliferation Kit, available from Clontech Lab. Inc. CA, U.S.A.) and evaluated as an indication of cell proliferation."}, "[3]": {"system": "A7r5 cells derived from the aorta of a rat", "experiment": "Inhibition of serum- or PDGF-stimulated proliferation of vascular smooth muscle cells, [3H]-thymidine uptake", "format": "cell-based", "experimental": "In order to assess the inhibitory effect of a compound of the present invention on serum- or PDGF-stimulated proliferation of vascular smooth muscle cells in vitro, the compound obtained in Example 36 was tested using A7r5 cells derived from the aorta of a rat (ATCC-CRL-1444). Further, the effect was compared with that of α-tocopherol which was reported to have an inhibitory effect on proliferation of vascular smooth muscle cells (see J. Biol. Chem., 266, pp. 6188-6194 (1991)).\nUsing DMEM medium containing 10% FBS, the cells were placed on 96-well microtiter plates with 5×10^3 cells/0.2 ml/well and then incubated. The medium was exchanged for 2% FBS-containing DMEM medium on the third day and then for 0.2% FBS-containing DMEM medium on the fourth day from the start of the incubation. After 48-hour incubation in the 0.2% FBS-containing DMEM medium, the medium was removed, 0.2 ml of DMEM medium and the test compound were added, and the cells were stimulated with serum (2% FBS) or PDGF (PDGF-BB: human origin, available from Becton Dickinson Labware) (4 ng/ml) to proliferate. The test compound was added to the wells in the form of a solution or suspension in ethanol in amount of 1 μl well to final compound concentrations indicated in Table 2 below and the resultant ethanol concentration of 0.5% in each well. Eight hours after the stimulation, hydroxyurea was added to a final concentration of 1.5 mM to synchronize the cell cycle strictly. After additional 14-hour incubation, the medium containing hydroxyurea was removed and the cells were washed, and DMEM medium, the test compound and the proliferation stimulator were added thereto again. Further, [^3H]-thymidine (1 μCi/well; […]; available from NEN Research) was added. The [^3H]-thymidine uptake in 5 hours was measured as an indication of cell proliferation."}, "[4]": {"system": "rabbit balloon injury models", "experiment": "In vivo effect in intimal thickening model (2), rabbit balloon injury", "experimental": "In order to assess the inhibitory effect of the compound of the present invention on intimal thickening in vivo, the compound of Example 36 was tested using rabbit balloon injury models that were different from those used in Test Example 4 in week-age. Further, the effect was compared with that of Probucol which was reported to have an inhibitory effect on intimal thickening in balloon injury models (see Proc. Natl. Acad. Sci., U.S.A., 89, pp 11312-11316 (1992)).\nas §1, with “seven” for “eight”, “15-week-old)” for “11-week-old)”, “(4” for “(3”, “CMC” for “carboxymethyl cellulose (CMC)”, “evaluation. In order to evaluate the degree of balloon injury, a balloon-nontreated group (3 animals) was prepared.” for “evaluation.”\nAfter four weeks from the balloon treatment, specimens were taken from the aorta, stained with Elastica van Geison, and analyzed under an optical microscope. The image was processed to measure the thickness and area of the thickened intima. Averages of the thickness and area were obtained for each individual animal. The animals which died after the operation and those having a serum cholesterol level of 3500 mg/dl or higher were excluded from the measurement. The number of animals used for the evaluation was 4 or 5 per group."}, "[5]": {"conditions": "both intimal thickness and intimal area, 200 mg/kg oral"}}, "note": "Marks after values point to notes of the source that are not given here.", "data": [{"smiles": "CCCCCC1(CCCCC)Cc2c(cc(C(C)(C)C)c(O)c2C(C)(C)C)O1", "note": "[Example 36, 4,6-Di-t-butyl-2,2-di-n-pentyl-5-hydroxy-2,3-dihydrobenzofuran]", "values": [{"measurement": "Inhibitory effect on intimal thickening (in words)", "setting": "[1]; [5]", "result": "significant inhibitory effect on intimal thickening"}, {"measurement": "Area of Intima", "setting": "[1]; cholesterol-fed rabbits, 11-week-old, 200 mg/kg oral once a day, four weeks after balloon treatment, control 0.26 ± 0.03, mean ± SD", "result": "0.11 ± 0.08** mm^2"}, {"measurement": "Thickness of Intima", "setting": "[1]; cholesterol-fed rabbits, 11-week-old, 200 mg/kg oral once a day, four weeks after balloon treatment, control 103 ± 12, mean ± SD", "result": "45 ± 31", "unit": "μm"}, {"measurement": "Acid Phosphatase Activity Absorbance (OD405)", "setting": "[2]; 10 μM", "result": "0.733 ± 0.060"}, {"measurement": "Acid Phosphatase Activity Absorbance (OD405)", "setting": "[2]; 100 μM", "result": "0.539 ± 0.055"}, {"measurement": "activity at 10 µM", "setting": "[2]; Rattus norvegicus, A7R5, 10 μM, control 100 ± 10", "result": "84 ± 7", "unit": "%"}, {"measurement": "activity at 100 µM", "setting": "[2]; Rattus norvegicus, A7R5, 100 μM, control 100 ± 10", "result": "62 ± 6", "unit": "%"}, {"measurement": "Count by Liquid Scintillation Counter, FBS Stimulation ([3H]-thymidine uptake)", "setting": "[3]; 100 μM, 2% FBS, uptake in 5 hours, control 42789 ± 1063, n = 3, mean ± SD", "result": "14147 ± 1372", "unit": "CPM"}, {"measurement": "Count by Liquid Scintillation Counter, PDGF Stimulation ([3H]-thymidine uptake)", "setting": "[3]; 100 μM, PDGF-BB 4 ng/ml, uptake in 5 hours, control 24517 ± 2370, n = 3, mean ± SD", "result": "7881 ± 356", "unit": "CPM"}, {"measurement": "Inhibitory effect compared with α-tocopherol (in words)", "setting": "[3]; [3H]-thymidine uptake", "result": "higher than that of α-tocopherol"}, {"measurement": "Inhibition of serum- or PDGF-stimulated proliferation of vascular smooth muscle cells (in words)", "setting": "[3]; [3H]-thymidine uptake, 100 μM", "result": "inhibits serum- or PDGF-stimulated proliferation of vascular smooth muscle cells"}, {"measurement": "Inhibitory effect on intimal thickening compared with Probucol (in words)", "setting": "[4]; 200 mg/kg oral", "result": "higher than that of Probucol"}, {"measurement": "Inhibitory effect on intimal thickening (in words)", "setting": "[4]; [5]", "result": "significant inhibitory effect on intimal thickening"}, {"measurement": "Area of Intima", "setting": "[4]; cholesterol-fed rabbits, 15-week-old, 200 mg/kg oral once a day, four weeks after balloon treatment, control 1.32 ± 0.22, mean ± SD", "result": "0.81 ± 0.22", "unit": "mm²"}, {"measurement": "Thickness of Intima", "setting": "[4]; cholesterol-fed rabbits, 15-week-old, 200 mg/kg oral once a day, four weeks after balloon treatment, control 119 ± 19, mean ± SD", "result": "76 ± 16", "unit": "μm"}]}]}
